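Exposure lasted 48 hours, with cells grown in 96-well plates and compounds tested at five concentrations. At the GI50, growth is halved.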 Calls of active or inactive are those of the source. Rule as the data show it: active = GI50 up to about 1.1 µM and inactive = higher.
Assays:
Experiment in all cases: DTP human tumour cell line panel, 48 h
DU-145 = tested on: DU-145
M14 = tested on: M14
MDA-MB-435 = tested on: MDA-MB-435
SR = tested on: SR
SK-MEL-2 = tested on: SK-MEL-2
SF-539 = tested on: SF-539
UO-31 = tested on: UO-31
786-0 = tested on: 786-0
PC-3 = tested on: PC-3
RPMI-8226 = tested on: RPMI-8226
OVCAR-3 = tested on: OVCAR-3
SNB-75 = tested on: SNB-75
MDA-MB-231 = tested on: MDA-MB-231
HOP-62 = tested on: HOP-62
NCI-H522 = tested on: NCI-H522
A498 = tested on: A498
Hs-578T = tested on: Hs-578T
T47D = tested on: T47D

CS/C(=N\S(=O)(=O)c1ccc(Cl)cc1)NCCN/C(=N/S(=O)(=O)c1ccc(Cl)cc1)SC
GI50 (DU-145): > 100 µM (inactive) | GI50 (M14): > 100 µM (inactive) | GI50 (MDA-MB-435): > 100 µM (inactive) | GI50 (SR): > 100 µM (inactive) | GI50 (SK-MEL-2): 30.1 µM (inactive) | GI50 (SF-539): 61.4 µM (inactive) | GI50 (UO-31): > 100 µM (inactive) | GI50 (786-0): 24.8 µM (inactive) | GI50 (PC-3): 8.43 µM (inactive) | GI50 (RPMI-8226): > 100 µM (inactive) | GI50 (OVCAR-3): 32 µM (inactive) | GI50 (SNB-75): 24.4 µM (inactive) | GI50 (MDA-MB-231): > 100 µM (inactive) | GI50 (HOP-62): 20.6 µM (inactive) | GI50 (NCI-H522): 2.58 µM (inactive) | GI50 (A498): 37.5 µM (inactive)

COc1cc2c3c(n(C)c(=O)c2cc1OC)-c1cc2c(cc1/C3=C/CCCCBr)OCO2
GI50 (M14): 32.9 µM (inactive) | GI50 (SR): 1.57 µM (inactive) | GI50 (SK-MEL-2): > 100 µM (inactive) | GI50 (UO-31): 71 µM (inactive) | GI50 (786-0): 17.1 µM (inactive) | GI50 (PC-3): > 100 µM (inactive) | GI50 (RPMI-8226): 2.54 µM (inactive) | GI50 (SNB-75): 11.6 µM (inactive) | GI50 (MDA-MB-231): > 100 µM (inactive) | GI50 (Hs-578T): > 100 µM (inactive) | GI50 (NCI-H522): 4.16 µM (inactive) | GI50 (T47D): 3.76 µM (inactive) | GI50 (A498): 19.8 µM (inactive)

O=C(c1ccc(Cl)cc1)N1CCN=C1c1cc2ccccc2c2ccccc12
GI50 (DU-145): 17.9 µM (inactive) | GI50 (M14): 38.7 µM (inactive) | GI50 (MDA-MB-435): 15.7 µM (inactive) | GI50 (SR): 22.6 µM (inactive) | GI50 (SK-MEL-2): 15.6 µM (inactive) | GI50 (SF-539): 15.7 µM (inactive) | GI50 (UO-31): 16.9 µM (inactive) | GI50 (786-0): 16.7 µM (inactive) | GI50 (PC-3): 17.1 µM (inactive) | GI50 (RPMI-8226): 19.8 µM (inactive) | GI50 (OVCAR-3): 17.6 µM (inactive) | GI50 (SNB-75): 12.4 µM (inactive) | GI50 (MDA-MB-231): 16.2 µM (inactive) | GI50 (Hs-578T): 17.5 µM (inactive) | GI50 (HOP-62): 18.8 µM (inactive) | GI50 (T47D): 19.1 µM (inactive) | GI50 (A498): 15.4 µM (inactive)

O=C1C[C@H](Sc2ccccc2)C2(OCCO2)[C@H]2ON3CCC[C@@H]3[C@@H]12
GI50 (DU-145): 2.61 µM (inactive) | GI50 (M14): 2.26 µM (inactive) | GI50 (MDA-MB-435): 1.67 µM (inactive) | GI50 (SR): 0.286 µM (active) | GI50 (SK-MEL-2): 3.75 µM (inactive) | GI50 (SF-539): 1.2 µM (inactive) | GI50 (UO-31): 1.58 µM (inactive) | GI50 (786-0): 1.21 µM (inactive) | GI50 (PC-3): 2.48 µM (inactive) | GI50 (RPMI-8226): 0.306 µM (active) | GI50 (OVCAR-3): 0.904 µM (active) | GI50 (SNB-75): 3.66 µM (inactive) | GI50 (MDA-MB-231): 3.33 µM (inactive) | GI50 (Hs-578T): 3.73 µM (inactive) | GI50 (HOP-62): 2.01 µM (inactive) | GI50 (NCI-H522): 0.321 µM (active) | GI50 (T47D): 2.06 µM (inactive) | GI50 (A498): 13.2 µM (inactive)

Cc1ccc(/C=C2\CN(C)CC3=C2N=C(S)NC3c2ccc(C)cc2)cc1 (stereo not given)
GI50 (DU-145): 34.4 µM (inactive) | GI50 (M14): 27.3 µM (inactive) | GI50 (MDA-MB-435): 8.63 µM (inactive) | GI50 (SR): < 0.01 µM (active) | GI50 (SK-MEL-2): 51.3 µM (inactive) | GI50 (SF-539): 39 µM (inactive) | GI50 (UO-31): 55.1 µM (inactive) | GI50 (786-0): 21 µM (inactive) | GI50 (PC-3): 32.1 µM (inactive) | GI50 (OVCAR-3): 22.1 µM (inactive) | GI50 (SNB-75): 10.2 µM (inactive) | GI50 (MDA-MB-231): 34.8 µM (inactive) | GI50 (Hs-578T): > 100 µM (inactive) | GI50 (HOP-62): 40.5 µM (inactive) | GI50 (NCI-H522): 39.5 µM (inactive) | GI50 (T47D): > 100 µM (inactive) | GI50 (A498): > 100 µM (inactive)

O=C1/C(=C\c2cccc(Oc3ccccc3)c2)SC(c2ccccc2)N1c1cccc([N+](=O)[O-])c1 (stereo not given)
GI50 (DU-145): > 100 µM (inactive) | GI50 (M14): 65 µM (inactive) | GI50 (MDA-MB-435): 41.6 µM (inactive) | GI50 (SR): 32.3 µM (inactive) | GI50 (SK-MEL-2): > 100 µM (inactive) | GI50 (SF-539): 25.1 µM (inactive) | GI50 (UO-31): 96.8 µM (inactive) | GI50 (786-0): > 100 µM (inactive) | GI50 (RPMI-8226): 34.7 µM (inactive) | GI50 (OVCAR-3): > 100 µM (inactive) | GI50 (MDA-MB-231): > 100 µM (inactive) | GI50 (Hs-578T): 98.9 µM (inactive) | GI50 (HOP-62): > 100 µM (inactive) | GI50 (NCI-H522): 57.5 µM (inactive) | GI50 (T47D): > 100 µM (inactive) | GI50 (A498): > 100 µM (inactive)

O=S1(=O)CS(=O)(=O)OCCCO1
GI50 (DU-145): > 100 µM (inactive) | GI50 (M14): > 100 µM (inactive) | GI50 (MDA-MB-435): > 100 µM (inactive) | GI50 (SR): 41.2 µM (inactive) | GI50 (SK-MEL-2): > 100 µM (inactive) | GI50 (SF-539): 54.1 µM (inactive) | GI50 (UO-31): > 100 µM (inactive) | GI50 (786-0): > 100 µM (inactive) | GI50 (PC-3): > 100 µM (inactive) | GI50 (RPMI-8226): > 100 µM (inactive) | GI50 (OVCAR-3): > 100 µM (inactive) | GI50 (SNB-75): 51.8 µM (inactive) | GI50 (MDA-MB-231): > 100 µM (inactive) | GI50 (Hs-578T): > 100 µM (inactive) | GI50 (HOP-62): > 100 µM (inactive) | GI50 (NCI-H522): > 100 µM (inactive) | GI50 (T47D): > 100 µM (inactive) | GI50 (A498): > 100 µM (inactive)

COc1cc(Nc2nc3cc(C(F)(F)F)ccc3n3cccc23)cc(OC)c1OC
GI50 (DU-145): > 100 µM (inactive) | GI50 (M14): 17.8 µM (inactive) | GI50 (MDA-MB-435): 9.46 µM (inactive) | GI50 (SK-MEL-2): > 100 µM (inactive) | GI50 (SF-539): > 100 µM (inactive) | GI50 (UO-31): > 100 µM (inactive) | GI50 (PC-3): > 100 µM (inactive) | GI50 (RPMI-8226): > 100 µM (inactive) | GI50 (OVCAR-3): > 100 µM (inactive) | GI50 (SNB-75): > 100 µM (inactive) | GI50 (Hs-578T): > 100 µM (inactive) | GI50 (HOP-62): > 100 µM (inactive) | GI50 (NCI-H522): > 100 µM (inactive) | GI50 (T47D): 2.96 µM (inactive) | GI50 (A498): > 100 µM (inactive)
